The results in this text go back to EP3323412A1, “FORMULATION COMPRISING 4-METHYLPYRAZOLE” (Amalicon Holding AG, priority 2016, dated 2018).

The nature of the series: in vivo. More on the design: species or system dogs. Particulars: dog, iv, 10 mg/kg. As for the experimental part: The formulations of 4-MP with PEG-300 and PEG-400 show an oral bioavailability of about 110% when compared with an i.v. formulation at a dose of 10mg/kg in PK studies in dogs.
The following tables 1 to 3 show results of pharmacokinetic studies of the formulation of Example 3 (capsule containing 50 mg 4-MP and 250 mg PEG-400; Table 1) in comparison with a reference formulation (capsule containing 50 mg 4-MP and PEG-8000; Table 2) and IV administration of 4-MP. For these pharmacokinetic studies, 4-MP was administered to dogs at 10 mg/kg body weight. Table 1: Pharmacokinetic parameters of 4-methylpyrazole following oral administration of the formulation of Example 3 at 10 mg/kg: […]

As to `Cc1cn[nH]c1` [4-methylpyrazole, 4-Methylpyrazole], the AUC(0-t) – broadly, exposure summed from dosing to a finite time, without extrapolation to infinity – (AUC0-t) was determined as 88.3 µg·h/mL. Under “AUC0-∞”, the AUC(0-inf) (as a rule, total exposure, with the tail of the curve extrapolated) is 145 µg·h/mL. Further, the clearance (commonly the volume of plasma or blood freed of the substance per unit of time) (CL) was determined as 1.15 mL/min/kg. For the same compound, for the setting “Cmax”, the maximum concentration (Cmax) (commonly the maximum level reached in the sampled fluid or tissue) is 22600 ng/mL. Moreover, the Vd (in general, a proportionality between amount in the body and measured concentration, not a real space) is, setting by setting: (Vd) 0.94 L/kg; (Vdss) 0.89 L/kg.
